Like-named read-outs stand apart in the source and are kept apart here.
How the values were obtained:
[1] = Atovaquone release by Rapid Equilibrium Dialysis (RED) in Simulated Interstitial Fluid; type: physicochemical; conditions: initial 6-hour period, SIF, 1 mg/mL atovaquone, 37° C.
Procedure: The release rate of atovaquone from solid compositions thereof in accordance with the invention, alongside an equivalent unformulated preparation of atovaquone, was assessed using Rapid Equilibrium Dialysis (RED) (ThermoFisher Scientific). The eleven ‘hit’ formulations were dispersed in Simulated Interstitial Fluid (SIF) and subsequently diluted to 1 mg/mL of atovaquone. The SIF consisted of 35 mg/mL bovine serum albumin (BSA) and 2 mg/mL γ-Globulin derived from bovine blood and dissolved in distilled water. Unformulated atovaquone was initially dissolved in DMSO prior to dilution with SIF, such that the DMSO volume was <1% of the total volume. […] Following incubation, 4 mL ultima gold liquid scintillation cocktail fluid (Meridian Biotechnologies, UK) was added to each 0.1 mL sample and radioactivity was determined as disintegrations per minute (DPM) using a Perkin Elmer 3100TS scintillation counter. Data is expressed as the amount of atovaquone released and diffused across the membrane as a percentage of the starting donor amount, in triplicate, for each of the eleven hit formulations as compared to unformulated atovaquone, as shown in FIGS. 3A-3K (error bars are ±1 S.D.) and FIG. 4 (release after 24 hours) (error bars are ±1 S.D.). […]

[2] = set-up: species or system mice; conditions: mouse, in vivo
Procedure: Mice were injected intramuscularly with 200 mg/kg of an atovaquone nanoformulation. At intervals blood was harvested (microtainer tubes, BD Biosciences), centrifuged (1300×g, 10 min, 4° C.), and plasma was collected and stored at −80° C. until use. The nanoformulations tested were ACS_ATQ_7 and ACS_ATQ_8.
The concentration of atovaquone in the plasma was assayed by UPLC-MS/MS. Briefly, acetonitrile and deuterated atovaquone internal standard were added to 25 μL of thawed plasma, followed by filtration (Captiva filtration plate, Agilent Technologies). A 5 μL aliquot was separated on a reverse phase column and atovaquone was monitored by triple-quadrupole API4000 (SCIEX, Framingham, Mass., USA) mass analyzer with electrospray ionization. The assay was validated to FDA guidelines for 250-50,000 ng/mL. Values between 250 and 77 ng/mL (the limit of detection) were interpreted conservatively.

[3] = in vivo
[4] = orally dosed; mice; known value; cited from earlier work
[5] = humans; known value; cited from earlier work
[6] = background statement; cited from earlier work

- Release Rate ([1]; Table 3): 0.006 h⁻¹
- Release Rate ([1]; different loadings, Table 7): 0.0060 h⁻¹
- plasma concentration of atovaquone that correlates with successful prophylaxis [2]: > 200 ng/mL
- disposition of atovaquone in humans relative to mice [3]: approximately eight
SMILES: O=C1C(O)=C([C@H]2CC[C@H](c3ccc(Cl)cc3)CC2)C(=O)c2ccccc21 [atovaquone]
- plasma half-life [4]: 9 h
- plasma half-life [5]: 70 h
- lipophilicity [6]: highly lipophilic
- solubility in water [6]: practically insoluble
